Experimental data taken from article PMC5612656, “In vitro and in vivo effects of 2,4 diaminoquinazoline inhibitors of the decapping scavenger enzyme DcpS: Context-specific modulation of SMN transcript levels” (PLoS ONE, 2017).

System: spinal cord transcriptome
Assay: RNA-Seq of spinal cord tissue from 2B/- and 2B/+ mice
Assay type: in vivo, mouse
[1] = 2B+ spinal cord RNA Seq polyA, WT-RG vs. WT-Veh, adjusted p-value 1.01E-05
[2] = 2B+ spinal cord RNA Seq polyA, WT-RG vs. WT-Veh, adjusted p-value 3.86E-06

Nc1nc(N)c2c(OCC3CCN(Cc4c(Cl)cccc4Cl)CC3)cccc2n1 [RG3039]
log2(fold-change) 4632404H12Rik transcript [1]: 1.233 | log2(fold-change) Ifi44 transcript [1]: 3.126 | log2(fold-change) Snhg11 transcript [1]: 0.9645 | log2(fold-change) Scn10a transcript [2]: -4.931 | log2(fold-change) Tmem233 transcript [2]: -5.091 | log2(fold-change) 1700024P16Rik (2B-Veh vs 2B-RG3039): -0.9143 | log2(fold-change) 2010001M06Rik (2B-Veh vs 2B-RG3039): -0.4589 | log2(fold-change) 2810417H13Rik (2B-Veh vs 2B-RG3039): 0.7557 | log2(fold-change) 2810459M11Rik (2B-Veh vs 2B-RG3039): 0.8489 | log2(fold-change) 6330444E15Rik (2B-Veh vs 2B-RG3039): -1.493 | log2(fold-change) 8430408G22Rik (2B-Veh vs 2B-RG3039): -1.92 | log2(fold-change) A230028O05Rik (2B-Veh vs 2B-RG3039): -1.123 | log2(fold-change) AI429214 (2B-Veh vs 2B-RG3039): -0.7864 | log2(fold-change) AW495222 (2B-Veh vs 2B-RG3039): -0.8389 | log2(fold-change) Abcc4 (2B-Veh vs 2B-RG3039): -0.4948 | log2(fold-change) Acacb (2B-Veh vs 2B-RG3039): -0.9081 | log2(fold-change) Acer2 (2B-Veh vs 2B-RG3039): -1.144 | log2(fold-change) Ada (2B-Veh vs 2B-RG3039): -2.097 | log2(fold-change) Adhfe1 (2B-Veh vs 2B-RG3039): -0.3934 | log2(fold-change) Adipor2 (2B-Veh vs 2B-RG3039): -1.046 | log2(fold-change) Adm (2B-Veh vs 2B-RG3039): -0.7407 | log2(fold-change) Alox12 (2B-Veh vs 2B-RG3039): 1.236 | log2(fold-change) Alpl (2B-Veh vs 2B-RG3039): 0.9933 | log2(fold-change) Angptl2 (2B-Veh vs 2B-RG3039): 0.7515 | log2(fold-change) Angptl4 (2B-Veh vs 2B-RG3039): -1.6266 | log2(fold-change) Apln (2B-Veh vs 2B-RG3039): 0.547 | log2(fold-change) Aplnr (2B-Veh vs 2B-RG3039): 1.065 | log2(fold-change) Arrdc2 (2B-Veh vs 2B-RG3039): -1.418 | log2(fold-change) Arrdc3 (2B-Veh vs 2B-RG3039): -0.727 | log2(fold-change) Aspm (2B-Veh vs 2B-RG3039): 0.9497 | log2(fold-change) Aurkb (2B-Veh vs 2B-RG3039): 0.7105 | log2(fold-change) BC049352 (2B-Veh vs 2B-RG3039): -1.185 | log2(fold-change) BC064078 (2B-Veh vs 2B-RG3039): -0.6877 | log2(fold-change) Barx2 (2B-Veh vs 2B-RG3039): 0.4279 | log2(fold-change) Bdh2 (2B-Veh vs 2B-RG3039): -0.7221 | log2(fold-change) Bst2 (2B-Veh vs 2B-RG3039): 1.093 | log2(fold-change) Btbd16 (2B-Veh vs 2B-RG3039): -0.8478 | log2(fold-change) Bub1b (2B-Veh vs 2B-RG3039): 0.7302 | log2(fold-change) C130074G19Rik (2B-Veh vs 2B-RG3039): 0.558 | log2(fold-change) C330021F23Rik (2B-Veh vs 2B-RG3039): 1.369 | log2(fold-change) C430049B03Rik (2B-Veh vs 2B-RG3039): 0.7515 | log2(fold-change) Casc5 (2B-Veh vs 2B-RG3039): 0.9628 | log2(fold-change) Ccdc150 (2B-Veh vs 2B-RG3039): -0.9419 | log2(fold-change) Ccna2 (2B-Veh vs 2B-RG3039): 0.5769 | log2(fold-change) Ccnb1 (2B-Veh vs 2B-RG3039): 0.5224 | log2(fold-change) Ccnb2 (2B-Veh vs 2B-RG3039): 0.5384 | log2(fold-change) Cd101 (2B-Veh vs 2B-RG3039): -0.9911 | log2(fold-change) Cd248 (2B-Veh vs 2B-RG3039): 0.749 | log2(fold-change) Cdk1 (2B-Veh vs 2B-RG3039): 0.4623 | log2(fold-change) Cdkn1a (2B-Veh vs 2B-RG3039): -0.7839 | log2(fold-change) Chaf1b (2B-Veh vs 2B-RG3039): 0.7063 | log2(fold-change) Chodl (2B-Veh vs 2B-RG3039): 0.3892 | log2(fold-change) Col8a1 (2B-Veh vs 2B-RG3039): 0.5045 | log2(fold-change) Col12a1 (2B-Veh vs 2B-RG3039): 0.6621 | log2(fold-change) Colq (2B-Veh vs 2B-RG3039): -0.452 | log2(fold-change) Crispld1 (2B-Veh vs 2B-RG3039): 0.7708 | log2(fold-change) Cth (2B-Veh vs 2B-RG3039): -0.9118 | log2(fold-change) Cxcl12 (2B-Veh vs 2B-RG3039): 0.9102 | log2(fold-change) D630039A03Rik (2B-Veh vs 2B-RG3039): -0.7287 | log2(fold-change) Dao (2B-Veh vs 2B-RG3039): -0.6435 | log2(fold-change) Dcxr (2B-Veh vs 2B-RG3039): -0.6455 | log2(fold-change) Ddit4 (2B-Veh vs 2B-RG3039): -0.977 | log2(fold-change) Ddo (2B-Veh vs 2B-RG3039): -0.6951 | log2(fold-change) Depdc1b (2B-Veh vs 2B-RG3039): 0.6712 | log2(fold-change) Dlgap5 (2B-Veh vs 2B-RG3039): 0.6868 | log2(fold-change) Dnah8 (2B-Veh vs 2B-RG3039): 0.7242 | log2(fold-change) Dtl (2B-Veh vs 2B-RG3039): 0.8053 | log2(fold-change) E230015J15Rik (2B-Veh vs 2B-RG3039): -1.036 | log2(fold-change) Edn1 (2B-Veh vs 2B-RG3039): -1.282 | log2(fold-change) Ednrb (2B-Veh vs 2B-RG3039): 0.7966 | log2(fold-change) Egfl6 (2B-Veh vs 2B-RG3039): 0.8631 | log2(fold-change) Elf5 (2B-Veh vs 2B-RG3039): 0.6236 | log2(fold-change) Entpd2 (2B-Veh vs 2B-RG3039): 0.5977 | log2(fold-change) Espl1 (2B-Veh vs 2B-RG3039): 0.7643 | log2(fold-change) Etnppl (2B-Veh vs 2B-RG3039): -2.764 | log2(fold-change) Ets1 (2B-Veh vs 2B-RG3039): 0.8775 | log2(fold-change) Fabp7 (2B-Veh vs 2B-RG3039): 0.8454 | log2(fold-change) Fam64a (2B-Veh vs 2B-RG3039): 0.6855 | log2(fold-change) Fam107a (2B-Veh vs 2B-RG3039): -1.657 | log2(fold-change) Fam214a (2B-Veh vs 2B-RG3039): -0.4707 | log2(fold-change) Fam83d (2B-Veh vs 2B-RG3039): -1.4639 | log2(fold-change) Fas (2B-Veh vs 2B-RG3039): -0.8656 | log2(fold-change) Fgf21 (2B-Veh vs 2B-RG3039): -1 | log2(fold-change) Fgfr4 (2B-Veh vs 2B-RG3039): 1.087 | log2(fold-change) Fkbp5 (2B-Veh vs 2B-RG3039): -1.583 | log2(fold-change) Fli1 (2B-Veh vs 2B-RG3039): 0.4642 | log2(fold-change) Fzd10 (2B-Veh vs 2B-RG3039): 1.186 | log2(fold-change) Galnt15 (2B-Veh vs 2B-RG3039): -1.568 | log2(fold-change) Gatsl3 (2B-Veh vs 2B-RG3039): -1.006 | log2(fold-change) Gkn3 (2B-Veh vs 2B-RG3039): 1.302 | log2(fold-change) Glul (2B-Veh vs 2B-RG3039): -0.8158 | log2(fold-change) Gm266 (2B-Veh vs 2B-RG3039): 0.9562 | log2(fold-change) Gm807 (2B-Veh vs 2B-RG3039): -1.6695
